Data taken from US11390661B2, “HCMV entry inhibitors” (priority 2016, dated 2022).
Ends that are not written are not given here.

What was measured:
HCMV strain TB40/E [1] = assay type: cell-based, Human cytomegalovirus; conditions: HFFs
Protocol: For screening the PDGFRα peptides for their neutralizing capacity a recently developed Gaussia-Luciferase-Assay was utilized (10). The Gaussia luciferase is secreted into the cell culture supernatants, therefore it is not necessary to fix the cells and instead a sample of the Gaussia containing supernatant is taken and mixed with the substrate coelenterazine (PjK) at a final concentration of 0.2 μg/ml. The resulting light emission was detected at 495 nm. For all obtained values background signals were subtracted and neutralization efficiency was determined relative to the control samples which contained only virus, no peptide.
Cell free preparations of strain TB40/E were pre-incubated with the individual peptides at concentrations reaching from 0.05-50 nmol/ml for 2 h and the mixtures were then incubated with HFF cultures in a 96-well format. The various peptides differed greatly regarding their inhibitory potential with a region between aa120 and aa280 being absolutely ineffective and the peptides surrounding this region having the highest anti-HCMV effect (FIG. 9).

HCMV strain TB40/E [2] = assay: Inhibition of infection of fibroblasts (HFFs), IE antigen immunofluorescence; assay type: cell-based, Human cytomegalovirus; conditions: increasing concentrations, pre-incubated 2 h
Protocol: For testing the inhibitory effect of antivirals or fusion proteins on HCMV, the respective inhibitors were diluted in MEM and mixed with infectious supernatants, the mixtures were incubated for 2 h at 37° C. before addition to the cells. For fibroblast infection the virus-inhibitor mixture was incubated on the cells for about 24 h. If endothelial cells were included in the experiment, all cells were supplied with their respective maintenance media after 2 h, and further incubated for 22 h.
Infection efficiencies were determined by immunofluorescence staining for viral proteins. For fixation and permeabilization the cells were incubated with 80% acetone for 5 min. For HCMV infected cells the immediate early proteins pUL122/123 were detected with a mouse monoclonal (clone E13, Argene) and visualized using a Cy3 conjugated goat anti-mouse secondary antibody (Jackson Immuno Research). HSV infected cultures were stained 6 h post infection for ICP0 using a mouse monoclonal (clone 11060, Santa Cruz) and goat anti-mouse AF488 (life technologies). DAPI was used to locate nuclei. Infection rates were determined by counting the number of cell nuclei positive for the respective viral protein, as well as the total number of nuclei per image. For each condition three images were evaluated.
To test this, the inventors pre-incubated cell free preparations of HCMV strain TB40/E with variable concentrations of soluble PDGFR-alpha-Fc chimeras for 2 h before adding them to HFFs and HECs. After 2 h the virus was removed and replaced with the appropriate cell culture medium for an overnight incubation. Cultures were then fixed, and the fraction of infected cells was determined by indirect immunofluorescence staining of viral IE antigens.
Cell free preparations of TB40/E were pre-incubated with increasing concentrations of the various Fc chimeras for 2 h. HFFs were then incubated with the mixtures for 2 h followed by a medium exchange and an overnight incubation.

HCMV particles = assay: Binding of chimeric receptors (Fc-fusion proteins) to HCMV particles; set-up: species or system Human cytomegalovirus; conditions: particles pre-incubated with Fc-fusion protein, attached to cells on ice
Protocol: To assess the binding of Fc-Proteins to virus particles, HFFs were seeded at a density of 40,000 cells per well on IBIDI plates 1 day prior to infection. Virus preparations were pre-incubated with Fc-fusion proteins at a final concentration of 500 ng/ml for 2 h at 37° C. The virus/Fc-protein mixtures were incubated with the cells for 1.5 h on ice. Before fixation with 80% acetone, the cells were washed once with MEM. For staining of viral particles mouse hybridoma recognizing the abundant viral protein pp150 (generously provided by W. Britt, Sanchez 2000) used.
The inventors tested this by staining of adsorbed virus particles with the Fc-fusion proteins. […] Virus particles were stained for the capsid protein pp150 and bound Fc-fusion proteins.
The inventors analyzed the mode of inhibition by PDGFR-alpha-Fc. For this, the binding of different concentrations of the fusion protein was quantified by assessing the particle intensities after staining with anti-human antibody (FIG. 5). […] (FIGS. 4 and 5).

GRHIYIYVPDPDVAFVPLGMTDYLVIVEDDDSAIIPCRTT [peptide between aa90 and aa130]
inhibition at 10 nmol/ml (HCMV strain TB40/E [1]; 10 nmol/ml): almost complete inhibition | EC50 (HCMV strain TB40/E [1]; pre-incubated 2 h, read-out: EC50 of inhibition of HCMV infection by peptide): 2000 nM

B1: PDGFR-beta-Fc: recombinant Fc-fusion protein obtained from R&D (385-PR-100), comparison chimera (protein)
chain: LVVTPPGPELVLNVSSTFVLTCSGSAPVVWERMSQEPPQEMAKAQDGTFSSVLTLTNLTGLDTGEYFCTHNDSRGLETDERKRLYIFVPDPTVGFLPNDAEELFIFLTEITEITIPCRVTDPQLVVTLHEKKGDVALPVPYDHQRGFSGIFEDRSYICKTTIGDREVDSDAYYVYRLQVSSINVSVNAVQTVVRQGENITLMCIVIGNEVVNFEWTYPRKESGRLVEPVTDFLLDMPYHIRSILHIPSAELEDSGTYTCNVTESVNDHQDEKAINITVVESGYVRLLGEVGTLQFAELHRSRTLQVVFEAYPPPTVLWFKDNRTLGDSSAGEIALSTRNVSETRYVSELTLVRVKVAEAGHYTMRAFHEDAEVQLSFQLQINVPVRVLELSESHPDSGEQTVRCRGRGMPQPNIIWSACRDLKRCPRELPPTLLGNSSEEESQLETNVTYWEEEQEFEVVSTLRLQHVDRPLSVRCTLRNAVGQDTQEVIVVPHSLPF
modifications: left off: a dimerising Fc or GST
notes: recombinant Fc-fusion protein obtained from R&D (385-PR-100), comparison chimera
inhibitory potential of Fc chimeras on HCMV infection of HFFs (HCMV strain TB40/E [2]): neither PDGFR-beta-Fc nor EGFR-Fc had an effect | binding of Fc-fusion protein to virus particles (anti-human antibody staining) (HCMV particles): visualized only those particles that were pre-treated with PDGFR-alpha-Fc
